Measurements: patent publication US7554012B2, “Plants and plant cells exhibiting resistance to AMPA, and methods for making the same” (priority 1998, dated 2009)
Read-outs that look alike come from different tables or passages of the source.

What was measured:
purified PhnO protein = molecular target: T1, purified PhnO protein (Escherichia coli, UniProt P16691, P2A); assay: AMPA transacylase acyl-CoA acyl donor specificity, HPLC; format: biochemical, E. coli; settings: for [^14C]-AMPA % Conversion: 5 minutes 30° C.; for % Activity: 1 mM acetyl-CoA = 100% reference
T1 construct: made in house; host or cells: E. coli JM101 carrying pMON15032 (recA promoter, nalidixic acid induction)
Procedure: PhnO was purified from a one liter Luria Bertani broth culture of E. coli JM101 expressing a recombinant phnO gene from pMON15032 after nalidixic acid induction for three hours at 37° C. Cells were harvested by centrifugation and resuspended in 40 ml cold Tris buffer (0.1 M Tris-HCl pH 8) and placed on ice. The cell suspension was brought to 1 mM DTT and 0.5 mM PMSF. The suspension was lysed by 2 passages through a prechilled French pressure cell at 1,100 psi, centrifuged at 12,000 g (10,000 rpm in an Sorvall SA600 rotor) for 40 min at 4° C., then placed on ice. The cleared supernatants were poured into fresh 15 ml polypropylene tubes. The samples were split again into two equal portions and maintained at −80° C. until used further for purification of PhnO protein. 20 microliters of the soluble fraction was assayed for enzyme activity using the HPLC method described above in Example 2, except after terminating the assay with acid addition, the sample was stored at −80° C. A Sephacryl S200 column was prepared according to the manufacturers' instructions and equilibrated with a solution containing 20 mM Tris pH 8.0 and 0.5 mM MgCl2. The entire total soluble extract was layered over the top of the column bed after thawing on ice. Forty 9 ml fractions were collected from the column eluate, and thirty microliters of each fraction was analyzed by western blot using anti-PhnO antiserum after resolution on a 15% SDS-PAGE gel. Also, thirty microliters of each fraction was analyzed for AMPA acyl transferase activity using the method described in Example 2. […] These were represented by fractions 7 through 19 in this example, and were combined into a 100 ml volume, distributed into […] each containing 10 ml volumes, and stored at −80° C. for further use.
Anion exchange chromatography was used to determine the elution pattern of PhnO away from other contaminating proteins that co-elute during the Sephacryl S200 fractionation. One tube from the combined PhnO positive fractions was thawed on ice and injected into a 5/5 Mono-Q column pre-equilibrated with buffers A (one liter of 20 mM Tris-HCl pH 8.0 Mili-Q distilled deionized water) and B (one liter of 20 mM Tris-HCl pH 8.0, 1 M NaCl). The sample containing PhnO active protein was injected into the column and one milliliter fractions were collected. The column was washed for five minutes with a flow rate of 1.8 ml per minute Buffer A after loading the PhnO containing sample. At five minutes, Buffer B was added to the flow volume at 0.5 ml per minute for four minutes. Buffer B was ramped up to 22% of the flow volume at 10 minutes, 30% at 12 minutes, 36% at 13 minutes, 41% at 14 minutes, 46% at 15 minutes, 74% at 16 minutes, and 100% at 16 minutes through 22 minutes, at which point Buffer B flow was terminated and Buffer A was reinitiated at 100% to equilibrate the column. Ten microliter volumes from individual fractions collected from the Mono-Q column were analyzed by western blot and for transacylase activity as described in Example 2. […] Samples of this purified PhnO protein were used to determine enzyme's acyl donor substrate specificity.
Enzyme reactions were prepared as follows. […] A assay premix was prepared from which 45 microliters was used in each 100 microliter reaction. This 45 microliter premix sample consisted of 40 microliters distilled and deionized water, 2 microliters of 50 mM MgCl2, and 3 microliters of 1.3 mM [^14C]-AMPA (115,392 dpm per microliter). Reactions were initiated by mixing 40 microliters of 125 mM Tris-HCl pH 8.0, […] protein sample and 10 microliters acyl-CoA acyl donor compound in a microcentrifuge tube at room temperature. Each acyl-CoA acyl donor compound was prepared as a stock solution of 1 mM, 5 mM or 10 mM stocks. Each tube was then mixed with 45 microliters of the assay premix containing the [^14C]-AMPA […] substrate, mixed gently and transferred to a 30° C. water bath for 5 minutes. […]

PhnO enzyme = PhnO enzyme (Escherichia coli, UniProt P16691, P2A)
Procedure: The ability of the enzyme to produce N-acetyl AMPA from a mixture containing acetyl-CoA and AMPA across a range of pH values was determined. The reactions were carried out in MES/MOPS/Tricine buffer equilibrated to a pH value from 4.5 to 9.0, with actual pH values ranging from 5.2 through 9.0. Briefly, 95 microliters of an appropriate buffer was mixed with 100 microliters of 2×assay mix as described in example 4, and 5 microliters of desalted E. coli lysate containing approximately 400 ng/microliter PhnO protein.

CCNC(=O)CCNC(=O)[C@H](O)C(C)(C)COP(=O)(O)OP(=O)(O)OC[C@H]1O[C@@H](n2cnc3c(N)ncnc32)[C@H](O)[C@@H]1OP(=O)(O)O [Desulfo-CoA, desulfo-CoA]
[^14C]-AMPA % Conversion (purified PhnO protein; acyl donor 0.1 mM): 0.95% | % Activity (purified PhnO protein; acyl donor 0.1 mM): 0.95% | [^14C]-AMPA % Conversion (purified PhnO protein; acyl donor 0.5 mM): 1.25% | % Activity (purified PhnO protein; acyl donor 0.5 mM): 1.25% | [^14C]-AMPA % Conversion (purified PhnO protein; acyl donor 1 mM): 0.52% | % Activity (purified PhnO protein; acyl donor 1 mM): 0.52%

CC(C(=O)O)C(=O)SCCNC(=O)CCNC(=O)[C@H](O)C(C)(C)COP(=O)(O)OP(=O)(O)OC[C@H]1O[C@@H](n2cnc3c(N)ncnc32)[C@H](O)[C@@H]1OP(=O)(O)O (stereo partly shown) [Methylmalonyl-CoA, methylmalonyl CoA]
[^14C]-AMPA % Conversion (purified PhnO protein; acyl donor 0.1 mM): 1.11% | % Activity (purified PhnO protein; acyl donor 0.1 mM): 1.11% | [^14C]-AMPA % Conversion (purified PhnO protein; acyl donor 0.5 mM): 2.08% | % Activity (purified PhnO protein; acyl donor 0.5 mM): 2.08% | [^14C]-AMPA % Conversion (purified PhnO protein; acyl donor 1 mM): 2.21% | % Activity (purified PhnO protein; acyl donor 1 mM): 2.21%

CC(C)C(=O)SCCNC(=O)CCNC(=O)[C@H](O)C(C)(C)COP(=O)(O)OP(=O)(O)OC[C@H]1O[C@@H](n2cnc3c(N)ncnc32)[C@H](O)[C@@H]1OP(=O)(O)O [Isobutyryl-CoA, isobutyryl-CoA]
[^14C]-AMPA % Conversion (purified PhnO protein; acyl donor 0.1 mM): 2.10% | % Activity (purified PhnO protein; acyl donor 0.1 mM): 2.10% | [^14C]-AMPA % Conversion (purified PhnO protein; acyl donor 0.5 mM): 0.20% | % Activity (purified PhnO protein; acyl donor 0.5 mM): 0.20% | [^14C]-AMPA % Conversion (purified PhnO protein; acyl donor 1 mM): 0.00% | % Activity (purified PhnO protein; acyl donor 1 mM): 0.00%

C/C=C/C(=O)SCCNC(=O)CCNC(=O)[C@H](O)C(C)(C)COP(=O)(O)OP(=O)(O)OC[C@H]1O[C@@H](n2cnc3c(N)ncnc32)[C@H](O)[C@@H]1OP(=O)(O)O [Crotonoyl-CoA, crotonoyl-CoA]
[^14C]-AMPA % Conversion (purified PhnO protein; acyl donor 0.1 mM): 0.80% | % Activity (purified PhnO protein; acyl donor 0.1 mM): 0.80% | [^14C]-AMPA % Conversion (purified PhnO protein; acyl donor 0.5 mM): 0.00% | % Activity (purified PhnO protein; acyl donor 0.5 mM): 0.00% | [^14C]-AMPA % Conversion (purified PhnO protein; acyl donor 1 mM): 0.00% | % Activity (purified PhnO protein; acyl donor 1 mM): 0.00%

CCC(=O)SCCNC(=O)CCNC(=O)[C@H](O)C(C)(C)COP(=O)(O)OP(=O)(O)OC[C@H]1O[C@@H](n2cnc3c(N)ncnc32)[C@H](O)[C@@H]1OP(=O)(O)O [Propionyl-CoA, n-propionyl-CoA]
[^14C]-AMPA % Conversion (purified PhnO protein; acyl donor 0.1 mM): 78.2% | % Activity (purified PhnO protein; acyl donor 0.1 mM): 78.2% | [^14C]-AMPA % Conversion (purified PhnO protein; acyl donor 0.5 mM): 97.8% | % Activity (purified PhnO protein; acyl donor 0.5 mM): 97.8% | [^14C]-AMPA % Conversion (purified PhnO protein; acyl donor 1 mM): 100.00% | % Activity (purified PhnO protein; acyl donor 1 mM): 100.00%

CCCCC(=O)SCCNC(=O)CCNC(=O)[C@H](O)C(C)(C)COP(=O)(O)OP(=O)(O)OC[C@H]1O[C@@H](n2cnc3c(N)ncnc32)[C@H](O)[C@@H]1OP(=O)(O)O [Valeryl-CoA, n-valeryl-CoA]
[^14C]-AMPA % Conversion (purified PhnO protein; acyl donor 0.1 mM): 0.24% | % Activity (purified PhnO protein; acyl donor 0.1 mM): 0.24% | [^14C]-AMPA % Conversion (purified PhnO protein; acyl donor 0.5 mM): 0.00% | % Activity (purified PhnO protein; acyl donor 0.5 mM): 0.00% | [^14C]-AMPA % Conversion (purified PhnO protein; acyl donor 1 mM): 0.33% | % Activity (purified PhnO protein; acyl donor 1 mM): 0.33%

CC(C)(COP(=O)(O)OP(=O)(O)OC[C@H]1O[C@@H](n2cnc3c(N)ncnc32)[C@H](O)[C@@H]1OP(=O)(O)O)[C@@H](O)C(=O)NCCC(=O)NCCSC(=O)CCCC(=O)O [Glutaryl-CoA, glutaryl-CoA]
[^14C]-AMPA % Conversion (purified PhnO protein; acyl donor 0.1 mM): 0.81% | % Activity (purified PhnO protein; acyl donor 0.1 mM): 0.81% | [^14C]-AMPA % Conversion (purified PhnO protein; acyl donor 0.5 mM): 0.00% | % Activity (purified PhnO protein; acyl donor 0.5 mM): 0.00% | [^14C]-AMPA % Conversion (purified PhnO protein; acyl donor 1 mM): 0.57% | % Activity (purified PhnO protein; acyl donor 1 mM): 0.57%

CC(C)(COP(=O)(O)OP(=O)(O)OC[C@H]1O[C@@H](n2cnc3c(N)ncnc32)[C@H](O)[C@@H]1OP(=O)(O)O)[C@@H](O)C(=O)NCCC(=O)NCCSC(=O)CCC(=O)O [Succinyl-CoA, succinyl-CoA]
[^14C]-AMPA % Conversion (purified PhnO protein; acyl donor 0.1 mM): 5.06% | % Activity (purified PhnO protein; acyl donor 0.1 mM): 5.06% | [^14C]-AMPA % Conversion (purified PhnO protein; acyl donor 0.5 mM): 3.38% | % Activity (purified PhnO protein; acyl donor 0.5 mM): 3.38% | [^14C]-AMPA % Conversion (purified PhnO protein; acyl donor 1 mM): 1.56% | % Activity (purified PhnO protein; acyl donor 1 mM): 1.56%

C/C=C(\C)C(=O)SCCNC(=O)CCNC(=O)[C@H](O)C(C)(C)COP(=O)(O)OP(=O)(O)OC[C@H]1O[C@@H](n2cnc3c(N)ncnc32)[C@H](O)[C@@H]1OP(=O)(O)O [Tiglyl-CoA, tiglyl-CoA]
[^14C]-AMPA % Conversion (purified PhnO protein; acyl donor 0.1 mM): 0.00% | % Activity (purified PhnO protein; acyl donor 0.1 mM): 0.00% | [^14C]-AMPA % Conversion (purified PhnO protein; acyl donor 0.5 mM): 0.00% | % Activity (purified PhnO protein; acyl donor 0.5 mM): 0.00% | [^14C]-AMPA % Conversion (purified PhnO protein; acyl donor 1 mM): 0.99% | % Activity (purified PhnO protein; acyl donor 1 mM): 0.99%

B1: PhnO: AMPA acyltransferase protein encoded by the phnO gene within the E. coli phn operon (protein)
chain: MAACELRPATQYDTDAVYALICELKQAEFDHHAFRVGFNANLRDPNMRYHLALLDGEVVGMIGLHLQFHLHHVNWIGEIQELVVMPQARGLNVGSKLLAWAEEEARQAGAEMTELSTNVKRHDAHRFYLREGYEQSHFRFTKAL
pH of optimum PhnO transacylase activity (PhnO enzyme; AMPA and acetyl-CoA as substrates): ~8.0 pH | N-Acetyl CoA (PhnO enzyme; Buffer pH 5.0): 222 nmol | Velocity (PhnO enzyme; Buffer pH 5.0): 22.2 nmole/min/microgram | % Turnover (PhnO enzyme; Buffer pH 5.0 (mock reaction pH 5.23)): 3.7% | N-Acetyl CoA (PhnO enzyme; Buffer pH 5.5): 234 nmol | Velocity (PhnO enzyme; Buffer pH 5.5): 23.4 nmole/min/microgram | % Turnover (PhnO enzyme; Buffer pH 5.5 (mock reaction pH 5.62)): 3.9% | N-Acetyl CoA (PhnO enzyme; Buffer pH 6.0): 252 nmol | Velocity (PhnO enzyme; Buffer pH 6.0): 25.2 nmole/min/microgram | % Turnover (PhnO enzyme; Buffer pH 6.0 (mock reaction pH 5.92)): 4.2% | N-Acetyl CoA (PhnO enzyme; Buffer pH 6.5): 798 nmol | Velocity (PhnO enzyme; Buffer pH 6.5): 79.8 nmole/min/microgram | % Turnover (PhnO enzyme; Buffer pH 6.5 (mock reaction pH 6.47)): 13.3% | N-Acetyl CoA (PhnO enzyme; Buffer pH 7.0): 1620 nmol | Velocity (PhnO enzyme; Buffer pH 7.0): 162.0 nmole/min/microgram | % Turnover (PhnO enzyme; Buffer pH 7.0 (mock reaction pH 7.0)): 27.0% | N-Acetyl CoA (PhnO enzyme; Buffer pH 7.5): 1920 nmol | Velocity (PhnO enzyme; Buffer pH 7.5): 192.0 nmole/min/microgram | % Turnover (PhnO enzyme; Buffer pH 7.5 (mock reaction pH 7.48)): 32.0% | N-Acetyl CoA (PhnO enzyme; Buffer pH 8.0): 2058 nmol | Velocity (PhnO enzyme; Buffer pH 8.0): 205.8 nmole/min/microgram | % Turnover (PhnO enzyme; Buffer pH 8.0 (mock reaction pH 8.05)): 34.3% | N-Acetyl CoA (PhnO enzyme; Buffer pH 8.5): 2010 nmol | Velocity (PhnO enzyme; Buffer pH 8.5): 201.0 nmole/min/microgram | % Turnover (PhnO enzyme; Buffer pH 8.5 (mock reaction pH 8.46)): 33.5% | N-Acetyl CoA (PhnO enzyme; Buffer pH 9.0): 2034 nmol | Velocity (PhnO enzyme; Buffer pH 9.0): 203.4 nmole/min/microgram | % Turnover (PhnO enzyme; Buffer pH 9.0 (mock reaction pH 9.0)): 33.9%
